Measurements as given in patent US20070270418A1, “Inhibitors of P38 and Methods of Using the Same” (priority 2003, published 2007).
Like-named read-outs stand apart in the source and are kept apart here.

Tests used:
Src^p60 = molecular target: T1, Src^p60 (Homo sapiens, UniProt P12931); assay: Src^p60 peptide phosphorylation, time resolved fluorescence; format: biochemical
T1 construct: purchased Upstate (Charlottesville, Va.)
Procedure: (§1) A selectivity panel is used to test the cross-reactivity of compounds of the invention with the β and γ isoforms of p38 MAP kinase, Src^p60 and JNK2α2. The p38β, p38γ, and JNK2α2 assays are described in Example 4. The Src^p60 assay measures the ability of compounds to inhibit Src^p60-catalyzed phosphorylation of a peptide substrate.
Compounds are serially diluted in DMSO and 1 μL of test compound at 25× final concentration is used. The vehicle control receives DMSO only. Test compounds are pre-incubated with 10 μL of water containing 5.3 units of Src^p60 enzyme (Upstate, Charlottesville, Va.) at room temperature for 15 minutes. […] The reactions are incubated for 1 hr at room temperature. Time resolved fluorescence is read at 665 and 615 nm using the Victor V program LANCE 615/665 on a Victor^2 V plate reader (Perkin Elmer Life Sciences).

p38β = molecular target: T2, p38β (Homo sapiens, UniProt Q15759); assay: Kinase selectivity, ATF2 phosphorylation ELISA; format: biochemical
T2 construct: p38 MAP Kinases are recombinant human full-length proteins with an amino-terminal GST fusion; GST (N); purchased Upstate (Charlottesville, Va.); host or cells: E. coli
Procedure: All kinases and the substrate ATF2 are acquired from Upstate (Charlottesville, Va.). p38 MAP Kinases are recombinant human full-length proteins with an amino-terminal GST fusion, expressed in and purified from E. coli. ATF2 is a GST fusion protein containing amino acids 19-96 of human ATF2 expressed in E. coli. All proteins were aliquoted and stored at −80° C.
p38 MAP Kinase assays are performed using an assay buffer containing 25 mM HEPES, pH 7.5, 10 mM MgCl2, 2 mM DTT, 20 mM β-glycerophosphate, 0.1 mM Na3VO4, 40 μM ATP and 1.25 μM of ATF2, together with 6 ng of p38α protein, 12 ng p38β protein, 1.5 ng p38γ, or 0.4 ng JNK2α2. Compounds are serially diluted in DMSO and 2 μL of test compound at 25× final concentration is used. The vehicle control receives DMSO only. Test compounds are pre-incubated with 20 μl of enzyme in kinase buffer (25 mM HEPES, pH 7.5, 10 mM MgCl2, 2 mM DTT, 20 mM 3-glycerophosphate and 0.1 mM Na3VO4) at room temperature for 15 minutes. […] The reactions are incubated for 30 minutes at 37° C. and terminated by the addition of 18 μl of 200 mM EDTA. An ELISA method is used to measure the phosphorylation of ATF2 at Thr 69. High binding 96-well plates (Corning 3369) are coated with 50 μl of kinase reaction for 1 hour at 37° C. The coated plates are washed with 200 μl washing buffer (25 mM Tris HCl, pH 8.3, 192 mM glycine, 0.1% SDS and 0.05% Tween-20) three times. The plates are then washed three times with SuperBlock in TBS (Pierce, 37535). After blocking, plates are incubated with 50 μl of rabbit anti-phospho-ATF2 antibody (Cell Signaling, 9221 L, 1:500) for 30 minutes at 37° C. Plates are washed three times with washing buffer prior to incubation with 50 μl HRP-conjugated goat anti-rabbit antibody (Cell Signaling, 7074, 1:500) for 30 minutes at 37° C. Plates are then washed three times with washing buffer before incubation with 50 μl of Ultra TMB-ELISA (Pierce, 34028) for 8 minutes at room temperature. Finally, 50 μl of phosphoric acid (1 M) is added to stop reactions and plate absorbance is read at 450 nm on a SpectraMax 250 plate reader.
as §1

p38α = molecular target: T3, p38α (Homo sapiens, UniProt Q16539); assay: p38 MAP Kinase assay, ATF2 phosphorylation (ELISA); format: biochemical; details: 40 μM ATP
T3 construct: p38 MAP Kinases are recombinant human full-length proteins with an amino-terminal GST fusion; GST (N); purchased Upstate (Charlottesville, Va.); host or cells: E. coli
How it was run: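 Recombinant full-length GST-tagged human p38α (6 ng) pre-incubated 15 min at room temperature with compound, then reacted 30 min at 37° C with 40 μM ATP and 1.25 μM GST-ATF2 (aa 19-96) in HEPES pH 7.5/MgCl2 buffer. EDTA stop; ATF2 Thr69 phosphorylation measured by anti-phospho-ATF2 ELISA at 450 nm.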

[1] = system: collagen-induced arthritis in rats; assay: In vivo established type II collagen arthritis study; parameters: species or system Female Lewis rats; details: Rattus norvegicus, po, oral gavage bid, days 1-7 of arthritis
Procedure: Compounds are tested in the collagen-induced model of arthritis in rats. Female Lewis rats (0.16-0.2 kg) are injected subcutaneously at the base of the tail and two sites on the back on day 0 and 6 with 300 μl of Freund's Incomplete Adjuvant containing 2 mg/ml of Bovine Type II Collagen. On day 9 of the study, caliper measurements of both hind leg ankle joints are performed. This measurement is considered the normal, pre-disease measurement. When ankle swelling is clearly established in at least one hind paw (caliper measurement increase from 0.263 to 0.282 inches), rats are enrolled into the treatment phase of the study. This occurs on day 10 or 11 of the study and is considered to be day 1 of arthritis. Enrolled animals are randomized and administered vehicle control or compound (1, 3.3, 10, or 30 mg/kg, bid), unless otherwise indicated, or dexamethasone (0.0375 mg/kg, bid) via oral gavage on days 1-7 of arthritis (treatment days). Ankle diameters are measured on each day of treatment. Mean increases in ankle diameter for 7 lead compounds are shown below in FIGS. 3-9.
Following sacrifice on day 7, both hind paws are removed from each animal and weighed. Knees and ankles from all animals in all groups are preserved, decalcified in 5% formic acid and trimmed into two approximately equal longitudinal (ankles) or frontal (knees) halves, dehydrated, cleared, infiltrated, and embedded in paraffin. Blocks are sectioned and stained with Toluidine Blue.
Tissues are examined microscopically and scored for knee and ankle inflammation (cellular infiltration), pannus formation and infiltration, cartilage damage (loss of Toluidine staining and collagen disruption) and bone resorption. Scoring is on a scale from 0-5, where a score of 0 is normal and a score of 5 indicates severe damage or evidence of disease or both.

[2] = first column so headed (c3), read-out: ED50 summed ankle histology
[3] = second column so headed (c4), read-out: ED50 summed ankle histology

T1 sequence (P12931 whole entry): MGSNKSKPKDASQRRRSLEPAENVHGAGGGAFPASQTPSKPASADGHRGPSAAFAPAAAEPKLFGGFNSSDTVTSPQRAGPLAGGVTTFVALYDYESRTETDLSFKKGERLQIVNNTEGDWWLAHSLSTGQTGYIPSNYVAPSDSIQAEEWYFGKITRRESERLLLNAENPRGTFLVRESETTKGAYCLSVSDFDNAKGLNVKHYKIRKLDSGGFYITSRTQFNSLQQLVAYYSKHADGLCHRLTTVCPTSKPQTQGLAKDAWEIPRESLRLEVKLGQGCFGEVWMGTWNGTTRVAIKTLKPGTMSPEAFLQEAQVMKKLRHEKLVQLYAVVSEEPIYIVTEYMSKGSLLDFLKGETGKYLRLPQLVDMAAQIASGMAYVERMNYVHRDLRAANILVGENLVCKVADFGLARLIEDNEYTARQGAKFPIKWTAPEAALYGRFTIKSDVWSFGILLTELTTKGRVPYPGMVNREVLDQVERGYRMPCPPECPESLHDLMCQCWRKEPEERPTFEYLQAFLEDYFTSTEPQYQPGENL
T2 sequence (Q15759 whole entry, the tested form may be a part): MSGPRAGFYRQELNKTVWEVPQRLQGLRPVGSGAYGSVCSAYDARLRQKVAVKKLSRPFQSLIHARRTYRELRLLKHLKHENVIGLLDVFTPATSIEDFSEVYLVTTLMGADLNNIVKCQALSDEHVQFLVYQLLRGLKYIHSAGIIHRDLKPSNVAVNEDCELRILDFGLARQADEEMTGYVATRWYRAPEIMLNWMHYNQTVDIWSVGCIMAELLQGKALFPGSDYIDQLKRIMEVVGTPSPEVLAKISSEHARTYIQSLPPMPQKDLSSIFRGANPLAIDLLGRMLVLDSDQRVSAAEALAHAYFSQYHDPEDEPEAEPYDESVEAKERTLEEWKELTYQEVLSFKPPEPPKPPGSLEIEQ
T3 sequence (Q16539 whole entry, the tested form may be a part): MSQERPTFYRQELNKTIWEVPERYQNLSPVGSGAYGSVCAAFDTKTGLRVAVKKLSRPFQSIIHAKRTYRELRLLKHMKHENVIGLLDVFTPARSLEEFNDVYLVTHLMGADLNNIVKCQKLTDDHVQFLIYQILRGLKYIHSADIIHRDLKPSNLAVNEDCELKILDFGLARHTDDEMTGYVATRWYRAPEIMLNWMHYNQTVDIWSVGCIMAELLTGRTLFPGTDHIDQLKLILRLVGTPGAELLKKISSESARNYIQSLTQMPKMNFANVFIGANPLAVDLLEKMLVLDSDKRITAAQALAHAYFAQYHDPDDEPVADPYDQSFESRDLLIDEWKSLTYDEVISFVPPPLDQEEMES

SMILES	IC50 (Src^p60)	IC50 (p38β)	IC50 (p38α)	ED50 [1, 2]	ED50 ([1]; read-out: ED50 ankle diameter)	ED50 ([1]; read-out: ED50 paw weights)	ED50 [1, 3]	selectivity over p38β as compared to p38α (p38β)
CS(=O)(=O)N1CCC(Nc2nccc(-c3c(-c4ccc(F)cc4)nc4occn34)n2)CC1 [CCLXXIX]	> 64 µM	1.8 nM	0.71 nM	4.29 mg/kg	2.09 mg/kg	2.57 mg/kg	0.72 mg/kg	–
CC(=O)N1CCC(Nc2nccc(-c3c(-c4ccc(F)cc4)nc4occn34)n2)CC1 [CCLXXVIII]	–	6.3 nM	2.38 nM	3.09 mg/kg	2.04 mg/kg	1.55 mg/kg	1.24 mg/kg	–
CN1[C@@H]2CC[C@H]1C[C@@H](Nc1nccc(-c3c(-c4ccc(F)cc4)nc4occn34)n1)C2 [CCLXXXI]	> 9.03 µM	24.6 nM	4.91 nM	0.93 mg/kg	0.98 mg/kg	0.94 mg/kg	0.2 mg/kg	–
Fc1ccc(-c2nc3occn3c2-c2ccnc(NC3CCNCC3)n2)cc1 [CCLXXX]	–	95.4 nM	13.1 nM	7.6 mg/kg	5.43 mg/kg	3.51 mg/kg	1.04 mg/kg	–
CN(C)CC(C)(C)CNc1nccc(-c2c(-c3ccc(F)cc3)nc3occn23)n1 [CXIX]	–	288 nM	17 nM	2.64 mg/kg	2.3 mg/kg	3.75 mg/kg	1.19 mg/kg	–
Fc1ccc(-c2nc3occn3c2-c2ccnc(N[C@@H]3CN4CCC3CC4)n2)cc1 [LXXI]	12.9 µM	114 nM	27.7 nM	–	–	–	–	–
Fc1ccc(-c2nc3occn3c2-c2ccnc(NC3CN4CCC3CC4)n2)cc1 (centres unmarked) [LXXXIV]	> 29.5 µM	1290 nM	15 nM	2.6 mg/kg	1.9 mg/kg	2 mg/kg	0.6 mg/kg	–
Fc1ccc(-c2nc3occn3c2-c2ccnc(N[C@H]3CN4CCC3CC4)n2)cc1 [LXXXVII]	25.9 µM	150 nM	8.7 nM	2.07 mg/kg	1.29 mg/kg	1.88 mg/kg	0.42 mg/kg	17 fold
